Measurements: patent US9546152B2 (MERCK SHARP & DOHME CORP., priority 2012, dated 2017)
Read-outs that look alike come from different tables or passages of the source.

Experiments:
human orexin-2 receptor [1] = target: T1, human orexin-2 receptor (Homo sapiens (Human), UniProt O43614); experiment: radioligand binding assay, orexin-2 receptor; details: read-out: hOX2R BIND hKi
[2] = target: orexin-1 receptor (hOX1R) (Rattus norvegicus, UniProt P56718); experiment: radioligand binding assay, orexin-1 receptor; details: membranes prepared from CHO cells expressing the OX1 receptor; read-out: hOX1R BIND hKi
orexin-1 receptor (hOX1R), sequence (P56718 whole entry, looked up): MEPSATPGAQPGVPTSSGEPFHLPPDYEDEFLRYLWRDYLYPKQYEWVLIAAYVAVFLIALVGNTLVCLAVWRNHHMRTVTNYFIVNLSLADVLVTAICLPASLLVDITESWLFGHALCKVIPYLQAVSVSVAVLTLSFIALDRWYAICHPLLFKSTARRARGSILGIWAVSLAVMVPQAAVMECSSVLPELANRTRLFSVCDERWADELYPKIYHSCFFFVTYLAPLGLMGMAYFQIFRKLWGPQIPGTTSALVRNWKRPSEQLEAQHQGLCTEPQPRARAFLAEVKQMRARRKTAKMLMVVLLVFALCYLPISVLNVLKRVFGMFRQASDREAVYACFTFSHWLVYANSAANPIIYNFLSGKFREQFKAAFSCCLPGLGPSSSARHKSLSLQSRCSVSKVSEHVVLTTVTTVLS
Experimental: In a typical experiment the OX1 and OX2 receptor antagonistic activity of the compounds of the present invention was determined in accordance with the following experimental method. For intracellular calcium measurements, Chinese hamster ovary (CHO) cells expressing the rat orexin-1 receptor or the human orexin-2 receptor, are grown in Iscove's modified DMEM containing 2 mM L-glutamine, […], 1% hypoxanthine-thymidine supplement, 100 U/ml penicillin, 100 μg/ml streptomycin and 10% heat-inactivated fetal calf serum (FCS). The cells are seeded at 20,000 cells/well into Becton-Dickinson black 384-well clear bottom sterile plates coated with poly-D-lysine. […] Within the Fluorescent Imaging Plate Reader (FLIPR, Molecular Devices), test compounds are added to the plate in a volume of 25 μl, incubated for 5 min and finally 25 μl of agonist is added. Fluorescence is measured for each well at 1 second intervals for 5 minutes and the height of each fluorescence peak is compared to the height of the fluorescence peak induced by 70 pM Ala-6,12 orexin-A with buffer in place of antagonist. […] Alternatively, compound potency can be assessed by a radioligand binding assay (described in Bergman et. al. Bioorg. Med. Chem. Lett. 2008, 18, 1425-1430) in which the inhibition constant (Ki) is determined in membranes prepared from CHO cells expressing either the OX1 or OX2 receptor. […]

human orexin-2 receptor [3] = target: T1, human orexin-2 receptor; experiment: FLIPR Ca2+ Flux Assay, orexin-2 receptor; assay type: cell-based; details: read-out: hOX2R FLIPR IC50
Method in brief: (§1)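 Using CHO lines carrying either rat orexin-1 or human orexin-2 receptor, compounds were tested as antagonists of 70 pM Ala-6,12 orexin-A-evoked calcium rises. Fluo-4 signal was read on a FLIPR over 5 min after a 5 min compound preincubation.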

rat orexin-1 receptor = rat orexin-1 receptor (Rattus norvegicus (Rat), UniProt P56718); experiment: FLIPR Ca2+ Flux Assay, orexin-1 receptor; assay type: cell-based; details: read-out: hOX1R FLIPR IC50
rat orexin-1 receptor, sequence (P56718 whole entry): as the sequence (P56718 whole entry, looked up) above
Method in brief: as §1

[4] = membranes prepared from CHO cells expressing the OX2 receptor
[5] = CHO cells expressing the human orexin-2 receptor, agonist 70 pM Ala-6,12 human orexin-A
[6] = CHO cells expressing the rat orexin-1 receptor, agonist 70 pM Ala-6,12 human orexin-A

T1 sequence (O43614 whole entry): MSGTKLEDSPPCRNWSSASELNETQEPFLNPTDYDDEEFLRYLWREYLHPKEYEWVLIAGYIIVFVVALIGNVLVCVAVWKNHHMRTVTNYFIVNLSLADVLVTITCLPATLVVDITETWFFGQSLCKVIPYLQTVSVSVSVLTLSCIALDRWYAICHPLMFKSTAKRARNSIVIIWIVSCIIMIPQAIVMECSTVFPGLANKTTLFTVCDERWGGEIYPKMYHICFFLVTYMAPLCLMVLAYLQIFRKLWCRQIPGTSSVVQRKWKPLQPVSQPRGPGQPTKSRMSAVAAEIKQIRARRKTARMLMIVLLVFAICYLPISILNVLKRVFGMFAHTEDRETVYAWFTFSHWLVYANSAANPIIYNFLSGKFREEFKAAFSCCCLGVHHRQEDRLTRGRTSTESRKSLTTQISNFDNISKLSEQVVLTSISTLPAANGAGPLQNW

Row | Compound | Ki (human orexin-2 receptor [1]) | Ki [2] | IC50 (human orexin-2 receptor [3]) | IC50 (rat orexin-1 receptor) | Ki (human orexin-2 receptor [1]; [4]) | IC50 (human orexin-2 receptor [3]; [5]) | IC50 (rat orexin-1 receptor; [6])
1 | COc1c(C#N)ccnc1O[C@@H]1CC[C@@H](C)N(C(=O)c2cccc(F)c2-c2ncccn2)C1 [Example 109] | 1.1 nM | 482 nM | 26 nM | 2850 nM | – | – | –
2 | Cc1cnn(-c2ccccc2C(=O)N2C[C@H](Oc3nccc(C#N)c3C)CC[C@H]2C)c1 [Example 43, 3-methyl-2-{[(3R,6R)-6-methyl-1-{[2-(4-methyl-1H-pyrazol-1-yl)phenyl]carbonyl}piperidin-3-yl]oxy}pyridine-4-carbonitrile] | – | – | – | – | 0.9 nM | 10 nM | 722 nM
3 | COc1c(C#N)ccnc1O[C@@H]1CC[C@@H](C)N(C(=O)c2cc(C)ccc2-n2nccn2)C1 [Example 103, 3-methoxy-2-{[(3R,6R)-6-methyl-1-{[5-methyl-2-(2H-1,2,3-triazol-2-yl)phenyl]carbonyl}piperidin-3-yl]oxy}pyridine-4-carbonitrile] | – | – | – | – | 0.4 nM | 24 nM | 1010 nM
4 | Cc1c(C#N)ccnc1O[C@@H]1CC[C@@H](C)N(C(=O)c2ccc(F)cc2-n2nccn2)C1 [Example 9, 2-{[(3R,6R)-1-{[4-fluoro-2-(2H-1,2,3-triazol-2-yl)phenyl]carbonyl}-6-methylpiperidin-3-yl]oxy}-3-methylpyridine-4-carbonitrile] | – | – | – | – | 0.5 nM | 12 nM | 1080 nM
5 | Cc1c(C#N)ccnc1O[C@@H]1CC[C@@H](C)N(C(=O)c2ccccc2C(F)(F)F)C1 [Example 17, 3-methyl-2-{[(3R,6R)-6-methyl-1-{[2-(trifluoromethyl)phenyl]carbonyl}piperidin-3-yl]oxy}pyridine-4-carbonitrile] | – | – | – | – | 3.1 nM | 21 nM | 4960 nM
6 | COc1ccc(C(=O)N2C[C@H](Oc3nccc(C#N)c3C)CC[C@H]2C)c(SC)n1 [Example 84, 2-{[(3R,6R)-1-{[6-Methoxy-2-(methylsulfanyl)pyridin-3-yl]carbonyl}-6-methylpiperidin-3-yl]oxy}-3-methylpyridine-4-carbonitrile] | – | – | – | – | 2 nM | 22 nM | > 10000 nM
7 | COc1c(C#N)ccnc1O[C@@H]1CC[C@@H](C)N(C(=O)c2ccc(C)cc2-n2nccn2)C1 [Example 102, 3-methoxy-2-{[(3R,6R)-6-methyl-1-{[4-methyl-2-(2H-1,2,3-triazol-2-yl)phenyl]carbonyl}piperidin-3-yl]oxy}pyridine-4-carbonitrile] | – | – | – | – | 0.4 nM | 21 nM | 3550 nM
8 | Cc1c(C#N)ccnc1O[C@@H]1CC[C@@H](C)N(C(=O)c2ccccc2N2CCCC2)C1 [Example 29, 3-methyl-2-({(3R,6R)-6-methyl-1-[(2-pyrrolidin-1-ylphenyl)carbonyl]piperidin-3-yl}oxy)pyridine-4-carbonitrile] | – | – | – | – | 3.4 nM | 29 nM | 3100 nM
9 | Cc1nc(C(=O)N2C[C@H](Oc3nccc(C#N)c3C)CC[C@H]2C)c(-c2ccc(F)cc2)s1 [Example 41, 2-{[(3R,6R)-1-{[5-(4-fluorophenyl)-2-methyl-1,3-thiazol-4-yl]carbonyl}-6-methylpiperidin-3-yl]oxy}-3-methylpyridine-4-carbonitrile] | – | – | – | – | 4.6 nM | 48 nM | 1200 nM
10 | Cc1ccc(C(=O)N2C[C@H](Oc3nccc(C#N)c3C)CC[C@H]2C)c(-c2ncccn2)c1 [Example 76, 3-methyl-2-({(3R,6R)-6-methyl-1-[(4-methyl-2-pyrimidin-2-ylphenyl)carbonyl]piperidin-3-yl}oxy)pyridine-4-carbonitrile] | – | – | – | – | 2.1 nM | 37 nM | 1270 nM
11 | Cc1nc(C(=O)N2C[C@H](Oc3nccc(C#N)c3C)CC[C@H]2C)c(-c2ccccc2)s1 [Example 57, 3-methyl-2-({(3R,6R)-6-methyl-1-[(2-methyl-5-phenyl-1,3-thiazol-4-yl)carbonyl]piperidin-3-yl}oxy)pyridine-4-carbonitrile] | – | – | – | – | 1.4 nM | 23 nM | 521 nM
12 | COc1ccc(C(=O)N2C[C@H](Oc3nccc(C#N)c3C)CC[C@H]2C)c(N(C)C)n1 [Example 87, 2-{[(3R,6R)-1-{[2-(Dimethylamino)-6-methoxypyridin-3-yl]carbonyl}-6-methylpiperidin-3-yl]oxy}-3-methylpyridine-4-carbonitrile] | – | – | – | – | 9 nM | 69 nM | > 10000 nM
13 | CCc1ccccc1C(=O)N1C[C@H](Oc2nccc(C#N)c2C)CC[C@H]1C [Example 59, 2-({(3R,6R)-1-[(2-ethylphenyl)carbonyl]-6-methylpiperidin-3-yl}oxy)-3-methylpyridine-4-carbonitrile] | – | – | – | – | 3.7 nM | 31 nM | > 10000 nM
14 | COc1c(C#N)ccnc1O[C@@H]1CC[C@@H](C)N(C(=O)c2ccccc2C2CCC2)C1 [Example 105, 2-({(3R,6R)-1-[(2-cyclobutylphenyl)carbonyl]-6-methylpiperidin-3-yl}oxy)-3-methoxypyridine-4-carbonitrile] | – | – | – | – | 0.2 nM | 36 nM | 3500 nM
15 | COc1c(C#N)ccnc1O[C@@H]1CC[C@@H](C)N(C(=O)c2cccc(F)c2-n2nccn2)C1 [Example 97, 2-{[(3R,6R)-1-{[3-fluoro-2-(2H-1,2,3-triazol-2-yl)phenyl]carbonyl}-6-methylpiperidin-3-yl]oxy}-3-methoxypyridine-4-carbonitrile] | – | – | – | – | 0.3 nM | 19 nM | 1100 nM
16 | Cc1c(C#N)ccnc1O[C@@H]1CC[C@@H](C)N(C(=O)c2ccccc2C2CC2)C1 [Example 16, 2-({(3R,6R)-1-[(2-cyclopropylphenyl)carbonyl]-6-methylpiperidin-3-yl}oxy)-3-methylpyridine-4-carbonitrile] | – | – | – | – | 0.7 nM | 9 nM | 1740 nM
17 | C[C@@H]1CC[C@@H](Oc2nccc(C#N)c2C#N)CN1C(=O)c1ccccc1-n1nccn1 [Example 94, 2-{[(3R,6R)-6-methyl-1-{[2-(2H-1,2,3-triazol-2-yl)phenyl]carbonyl}piperidin-3-yl]oxy}pyridine-3,4-dicarbonitrile] | – | – | – | – | 4.4 nM | 40 nM | > 10000 nM
18 | CSc1c(C#N)ccnc1O[C@@H]1CC[C@@H](C)N(C(=O)c2ccccc2-n2nccn2)C1 [Example 95, 3-(Methylsulfanyl)-2-{[(3R,6R)-6-methyl-1-{[2-(2H-1,2,3-triazol-2-yl)phenyl]carbonyl}piperidin-3-yl]oxy}pyridine-4-carbonitrile] | – | – | – | – | 0.1 nM | 6 nM | 306 nM
19 | Cc1c(C#N)ccnc1O[C@@H]1CC[C@@H](C)N(C(=O)c2ccccc2-c2cnn(C)c2)C1 [Example 36, 3-methyl-2-{[(3R,6R)-6-methyl-1-{[2-(1-methyl-1H-pyrazol-4-yl)phenyl]carbonyl}piperidin-3-yl]oxy}pyridine-4-carbonitrile] | – | – | – | – | 1.5 nM | 20 nM | 2380 nM
20 | CCOc1ncccc1C(=O)N1C[C@H](Oc2nccc(C#N)c2C)CC[C@H]1C [Example 68] | – | – | – | – | 5.9 nM | 36 nM | > 10000 nM
